{"source": "patent US8119645B2", "about": "“Fungicide hydroximoyl-tetrazole derivatives” (Bayer Cropscience AG, priority 2006, dated 2012)", "data": [{"experiment": "logP by reversed-phase HPLC (EEC Directive 79/831 Annex V.A8)", "format": "physicochemical", "conditions": "not given", "values": [{"smiles": "Cc1nnnn1/C(=N/OCc1csc(NC(=O)C(C)(C)C)n1)c1ccsc1", "note": "[Compound 18, O-(2-tert-Butylcarbonylamino-1,3-thiazol-4-yl)methyl-(thien-3-yl)-(5-methyltetrazol-1-yl)methanone oxime]", "chromatographic logP": 2.94}, {"smiles": "Cc1nnnn1/C(=N/OCc1csc(N)n1)c1ccsc1", "note": "[Compound 20, O-(2-Amino-1,3-thiazol-4-yl)methyl-(thien-3-yl)-(5-methyltetrazol-1-yl)methanone oxime]", "chromatographic logP": 1.32}]}, {"experiment": "logP by reversed-phase HPLC (EEC Directive 79/831 Annex V.A8)", "format": "physicochemical", "conditions": "HPLC C18, 40° C., 0.1% aqueous formic acid / acetonitrile gradient", "values": [{"smiles": "Cc1nnnn1C(=NOCc1cccc(NC(=O)c2ccccc2)n1)c1ccsc1Cl", "note": "[Compound 1]", "LogP": 3.26}, {"smiles": "Cc1nnnn1C(=NOCc1cccc(NC(=O)C(C)(C)C)n1)c1ccsc1Cl", "note": "[Compound 2]", "LogP": 3.27}, {"smiles": "CCCCCC(=O)Nc1cccc(CON=C(c2ccsc2Cl)n2nnnc2C)n1", "note": "[Compound 3]", "LogP": 3.65}, {"smiles": "Cc1nnnn1C(=NOCc1csc(NC(=O)c2ccccc2)n1)c1ccsc1Cl", "note": "[Compound 4]", "LogP": 3.26}, {"smiles": "Cc1nnnn1C(=NOCc1csc(NC(=O)CCCCl)n1)c1ccsc1Cl", "note": "[Compound 5]", "LogP": 3}, {"smiles": "C=CCC(=O)Nc1nc(CON=C(c2ccsc2Cl)n2nnnc2C)cs1", "note": "[Compound 6]", "LogP": 2.73}, {"smiles": "Cc1nnnn1C(=NOCc1csc(NC(=O)C2CCCC2)n1)c1ccsc1Cl", "note": "[Compound 7]", "LogP": 3.3}, {"smiles": "Cc1nnnn1C(=NOCc1csc(NC(=O)C2CCCCC2)n1)c1ccsc1Cl", "note": "[Compound 8]", "LogP": 4.48}, {"smiles": "Cc1nnnn1C(=NOCc1csc(NC(=O)CCc2ccccc2)n1)c1ccsc1Cl", "note": "[Compound 9]", "LogP": 3.45}, {"smiles": "Cc1nnnn1C(=NOCc1csc(NC(=O)Cc2ccccc2)n1)c1ccsc1Cl", "note": "[Compound 10]", "LogP": 3.21}, {"smiles": "CCCCCCCCC(=O)Nc1nc(CON=C(c2ccsc2Cl)n2nnnc2C)cs1", "note": "[Compound 11]", "LogP": 4.77}, {"smiles": "Cc1nnnn1C(=NOCc1csc(NC(=O)C(C)C)n1)c1ccsc1Cl", "note": "[Compound 12]", "LogP": 2.86}, {"smiles": "CCCCCC(=O)Nc1nc(CON=C(c2ccsc2Cl)n2nnnc2C)cs1", "note": "[Compound 13]", "LogP": 3.59}, {"smiles": "Cc1nnnn1C(=NOCc1cccc(N)n1)c1ccsc1Cl", "note": "[Compound 14]", "LogP": 1.39}, {"smiles": "COCCOCC(=O)Nc1cccc(CON=C(c2ccsc2Cl)n2nnnc2C)n1", "note": "[Compound 15]", "LogP": 2.61}, {"smiles": "CCCCCOC(=O)Nc1cccc(CON=C(c2ccsc2Cl)n2nnnc2C)n1", "note": "[Compound 16]", "LogP": 4.19}, {"smiles": "COCCOC(=O)Nc1cccc(CON=C(c2ccsc2Cl)n2nnnc2C)n1", "note": "[Compound 17]", "LogP": 2.66}, {"smiles": "Cc1nnnn1C(=NOCc1cccc(N)n1)c1ccsc1", "note": "[Compound 19]", "LogP": 1.28}, {"smiles": "Cc1nnnn1C(=NOCc1csc(NC(=O)Nc2ccccc2)n1)c1ccsc1", "note": "[Compound 21]", "LogP": 2.88}, {"smiles": "CCCCCNC(=O)Nc1nc(CON=C(c2ccsc2)n2nnnc2C)cs1", "note": "[Compound 22]", "LogP": 2.99}, {"smiles": "CCCCCCCCNC(=O)Nc1nc(CON=C(c2ccsc2)n2nnnc2C)cs1", "note": "[Compound 23]", "LogP": 3.26}, {"smiles": "Cc1nnnn1C(=NOCc1csc(NC(=O)NCCc2ccccc2)n1)c1ccsc1", "note": "[Compound 24]", "LogP": 2.86}, {"smiles": "Cc1nnnn1C(=NOCc1csc(NC(=O)NC2CCCCC2)n1)c1ccsc1", "note": "[Compound 25]", "LogP": 2.92}, {"smiles": "Cc1nnnn1C(=NOCc1csc(NC(=O)NC(C)C)n1)c1ccsc1", "note": "[Compound 26]", "LogP": 2.32}, {"smiles": "C=CCNC(=O)Nc1nc(CON=C(c2ccsc2)n2nnnc2C)cs1", "note": "[Compound 27]", "LogP": 2.22}, {"smiles": "Cc1nnnn1C(=NOCc1csc(NC(=O)NC2CCCC2)n1)c1ccsc1", "note": "[Compound 28]", "LogP": 2.65}, {"smiles": "Cc1nnnn1C(=NOCc1csc(NC(=O)C2CCCCC2)n1)c1ccsc1", "note": "[Compound 29]", "LogP": 3.32}, {"smiles": "CCCCCC(=O)Nc1nc(CON=C(c2ccsc2)n2nnnc2C)cs1", "note": "[Compound 30]", "LogP": 3.25}, {"smiles": "Cc1nnnn1C(=NOCc1csc(NC(=O)C(C)C)n1)c1ccsc1", "note": "[Compound 31]", "LogP": 2.55}, {"smiles": "Cc1nnnn1C(=NOCc1csc(NC(=O)Cc2ccccc2)n1)c1ccsc1", "note": "[Compound 32]", "LogP": 2.9}, {"smiles": "Cc1nnnn1C(=NOCc1csc(NC(=O)CCc2ccccc2)n1)c1ccsc1", "note": "[Compound 33]", "LogP": 3.14}, {"smiles": "Cc1nnnn1C(=NOCc1csc(NC(=O)CCCCl)n1)c1ccsc1", "note": "[Compound 34]", "LogP": 2.67}, {"smiles": "Cc1nnnn1C(=NOCc1csc(NC(=O)c2ccccc2)n1)c1ccsc1", "note": "[Compound 35]", "LogP": 2.93}, {"smiles": "CCCCCC(=O)Nc1cccc(CON=C(c2ccsc2)n2nnnc2C)n1", "note": "[Compound 36]", "LogP": 3.39}, {"smiles": "Cc1nnnn1C(=NOCc1cccc(NC(=O)C(C)(C)C)n1)c1ccsc1", "note": "[Compound 37]", "LogP": 3}, {"smiles": "Cc1nnnn1C(=NOCc1cccc(NC(=O)c2ccccc2)n1)c1ccsc1", "note": "[Compound 38]", "LogP": 3.01}, {"smiles": "Cc1nnnn1C(=NOCc1csc(NC(=O)C2CCCC2)n1)c1ccsc1", "note": "[Compound 39]", "LogP": 3.05}, {"smiles": "C=CCC(=O)Nc1nc(CON=C(c2ccsc2)n2nnnc2C)cs1", "note": "[Compound 40]", "LogP": 2.51}, {"smiles": "CCCCCCCCC(=O)Nc1nc(CON=C(c2ccsc2)n2nnnc2C)cs1", "note": "[Compound 41]", "LogP": 4.51}, {"smiles": "CCc1nnnn1C(=NOCc1csc(NC(=O)C(C)(C)C)n1)c1ccsc1", "note": "[Compound 42]", "LogP": 3.35}, {"smiles": "CCc1nnnn1C(=NOCc1csc(NC(=O)C(C)C)n1)c1ccsc1", "note": "[Compound 43]", "LogP": 3.04}, {"smiles": "Cc1nnnn1C(=NOCc1csc(NC(=O)OCCc2ccccc2)n1)c1ccsc1", "note": "[Compound 44]", "LogP": 3.46}, {"smiles": "Cc1nnnn1C(=NOCc1csc(NC(=O)CCCc2ccccc2)n1)c1ccsc1", "note": "[Compound 45]", "LogP": 3.49}, {"smiles": "Cc1nnnn1C(=NOCc1csc(NC(=O)OCc2ccccc2)n1)c1ccsc1", "note": "[Compound 46]", "LogP": 3.24}, {"smiles": "Cc1nnnn1C(=NOCc1csc(NC(=S)NCCc2ccccc2)n1)c1ccsc1", "note": "[Compound 47]", "LogP": 3.65}, {"smiles": "COCCOCC(=O)Nc1nc(CON=C(c2ccsc2)n2nnnc2C)cs1", "note": "[Compound 48]", "LogP": 2.28}, {"smiles": "COCCOC(=O)Nc1nc(CON=C(c2ccsc2)n2nnnc2C)cs1", "note": "[Compound 49]", "LogP": 2.3}, {"smiles": "Cc1nnnn1C(=NOCCc1csc(N)n1)c1ccsc1", "note": "[Compound 50]", "LogP": 1.16}, {"smiles": "Cc1nnnn1C(=NOCCc1csc(NC(=O)C(C)(C)C)n1)c1ccsc1", "note": "[Compound 51]", "LogP": 3.19}, {"smiles": "Cc1nnnn1C(=NOCc1csc(NC(=O)C(C)(C)C)n1)c1ccc(-c2ccccc2)s1", "note": "[Compound 53]", "LogP": 4.24}, {"smiles": "Cc1nnnn1C(=NOCc1csc(NC(=O)Cc2ccccc2)n1)c1ccc(-c2ccccc2)s1", "note": "[Compound 54]", "LogP": 4.08}, {"smiles": "Cc1nnnn1C(=NOCc1csc(NC(=O)C2CC2)n1)c1ccc(-c2ccccc2)s1", "note": "[Compound 55]", "LogP": 3.7}, {"smiles": "CCCC(=O)Nc1nc(CON=C(c2ccc(-c3ccccc3)s2)n2nnnc2C)cs1", "note": "[Compound 56]", "LogP": 3.87}, {"smiles": "CCCCCC(=O)Nc1nc(CON=C(c2ccc(-c3ccccc3)s2)n2nnnc2C)cs1", "note": "[Compound 57]", "LogP": 4.58}, {"smiles": "Cc1ccc(C(=NOCc2csc(N)n2)n2nnnc2C)o1", "note": "[Compound 58]", "LogP": 1.47}, {"smiles": "Cc1ccc(C(=NOCc2csc(NC(=O)C(C)(C)C)n2)n2nnnc2C)o1", "note": "[Compound 59]", "LogP": 2.95}, {"smiles": "Cc1ccc(C(=NOCc2csc(NC(=O)CCCc3ccccc3)n2)n2nnnc2C)o1", "note": "[Compound 60]", "LogP": 3.4}, {"smiles": "Cc1ccc(C(=NOCc2csc(NC(=O)CCc3ccccc3)n2)n2nnnc2C)o1", "note": "[Compound 61]", "LogP": 3.15}, {"smiles": "Cc1ccc(C(=NOCc2csc(NC(=O)C3CCCC3)n2)n2nnnc2C)o1", "note": "[Compound 62]", "LogP": 2.98}, {"smiles": "Cc1ccc(C(=NOCc2csc(NC(=O)c3ccccc3)n2)n2nnnc2C)o1", "note": "[Compound 63]", "LogP": 2.96}, {"smiles": "CCCCCC(=O)Nc1nc(CON=C(c2ccc(C)o2)n2nnnc2C)cs1", "note": "[Compound 64]", "LogP": 3.26}, {"smiles": "Cc1ccc(C(=NOCc2csc(NC(=O)Cc3ccccc3)n2)n2nnnc2C)o1", "note": "[Compound 65]", "LogP": 2.92}, {"smiles": "Cc1ccc(C(=NOCc2csc(NC(=O)C(C)C)n2)n2nnnc2C)o1", "note": "[Compound 66]", "LogP": 2.57}, {"smiles": "Cc1ccc(C(=NOCc2csc(NC(=O)COCc3ccccc3)n2)n2nnnc2C)o1", "note": "[Compound 67]", "LogP": 3.12}, {"smiles": "Cc1ccc(C(=NOCc2csc(NC(=O)C3CC3)n2)n2nnnc2C)o1", "note": "[Compound 68]", "LogP": 2.41}, {"smiles": "C=CCC(=O)Nc1nc(CON=C(c2ccc(C)o2)n2nnnc2C)cs1", "note": "[Compound 69]", "LogP": 2.42}, {"smiles": "COCCOCC(=O)Nc1nc(CON=C(c2ccc(C)o2)n2nnnc2C)cs1", "note": "[Compound 70]", "LogP": 2.23}, {"smiles": "COCCOC(=O)Nc1nc(CON=C(c2ccc(C)o2)n2nnnc2C)cs1", "note": "[Compound 71]", "LogP": 2.37}, {"smiles": "Cc1ccc(C(=NOCc2cccc(N)n2)n2nnnc2C)o1", "note": "[Compound 72]", "LogP": 1}, {"smiles": "COCCOC(=O)Nc1cccc(CON=C(c2ccc(C)o2)n2nnnc2C)n1", "note": "[Compound 73]", "LogP": 2.53}, {"smiles": "CCCCCOC(=O)Nc1cccc(CON=C(c2ccc(C)o2)n2nnnc2C)n1", "note": "[Compound 74]", "LogP": 4.04}, {"smiles": "Cc1ccc(C(=NOCc2cccc(NC(=O)OCCc3ccccc3)n2)n2nnnc2C)o1", "note": "[Compound 75]", "LogP": 3.78}, {"smiles": "Cc1nnnn1C(=NOCc1csc(N)n1)c1cc(-c2ccccc2)c(Cl)s1", "note": "[Compound 76]", "LogP": 2.86}, {"smiles": "Cc1nnnn1C(=NOCc1csc(NC(=O)C2CC2)n1)c1cc(-c2ccccc2)c(Cl)s1", "note": "[Compound 77]", "LogP": 4.03}, {"smiles": "CCCCCCCCC(=O)Nc1nc(CON=C(c2cc(-c3ccccc3)c(Cl)s2)n2nnnc2C)cs1", "note": "[Compound 78]", "LogP": 5.94}, {"smiles": "CCCC(=O)Nc1nc(CON=C(c2cc(-c3ccccc3)c(Cl)s2)n2nnnc2C)cs1", "note": "[Compound 79]", "LogP": 4.18}, {"smiles": "CCCCCC(=O)Nc1nc(CON=C(c2cc(-c3ccccc3)c(Cl)s2)n2nnnc2C)cs1", "note": "[Compound 80]", "LogP": 4.88}, {"smiles": "Cc1nnnn1C(=NOCc1csc(N)n1)c1ccc(-c2ccc(Cl)c(Cl)c2)o1", "note": "[Compound 81]", "LogP": 2.83}, {"smiles": "CCCC(=O)Nc1nc(CON=C(c2ccc(-c3ccc(Cl)c(Cl)c3)o2)n2nnnc2C)cs1", "note": "[Compound 82]", "LogP": 4.11}, {"smiles": "CCCCCCCCC(=O)Nc1nc(CON=C(c2ccc(-c3ccc(Cl)c(Cl)c3)o2)n2nnnc2C)cs1", "note": "[Compound 83]", "LogP": 5.85}, {"smiles": "Cc1nnnn1C(=NOCc1csc(NC(=O)C2CC2)n1)c1ccc(-c2ccc(Cl)c(Cl)c2)o1", "note": "[Compound 84]", "LogP": 3.83}]}]}
